Values joined by “and” are separate entries in the source; they are usually repeats but may differ in a detail not shown here. Equal entries are not always repeated.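 Results reflect a 48-hour exposure of cells in 96-well plates to compound at five concentrations. GI50: concentration for 50% inhibition of growth. TGI: total growth inhibition.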
Columns and labels:
Assay in all cases: inhibition of tumour cell growth, NCI panel, 48 h
NCI/ADR-RES ovarian = tested on: NCI/ADR-RES ovarian
SK-OV-3 ovarian = tested on: SK-OV-3 ovarian
A498 renal = tested on: A498 renal
SF-268 CNS = tested on: SF-268 CNS
HT29 colon = tested on: HT29 colon
A549 NSCLC = tested on: A549 NSCLC
NCI-H23 lung = tested on: NCI-H23 lung
HOP-62 NSCLC = tested on: HOP-62 NSCLC
OVCAR-5 ovarian = tested on: OVCAR-5 ovarian
LOX IMVI melanoma = tested on: LOX IMVI melanoma

SMILES	GI50 (NCI/ADR-RES ovarian)	TGI (NCI/ADR-RES ovarian)	GI50 (SK-OV-3 ovarian)	TGI (SK-OV-3 ovarian)	GI50 (A498 renal)	TGI (A498 renal)	GI50 (SF-268 CNS)	TGI (SF-268 CNS)	GI50 (HT29 colon)	TGI (HT29 colon)	GI50 (A549 NSCLC)	TGI (A549 NSCLC)	GI50 (NCI-H23 lung)	TGI (NCI-H23 lung)	GI50 (HOP-62 NSCLC)	TGI (HOP-62 NSCLC)	GI50 (OVCAR-5 ovarian)	TGI (OVCAR-5 ovarian)	GI50 (LOX IMVI melanoma)	TGI (LOX IMVI melanoma) [µM]
O=c1c2ccccc2nc(-c2ccccc2Cl)n1-c1nnc(C(F)(F)F)s1	3.13 µM	> 100 µM	4.01 µM	39 µM	1.77 µM	5.07 µM	4.36 µM	> 100 µM	3.18 µM	13.6 µM	3.26 µM	> 100 µM	3.23 µM	17.3 µM	6.09 µM	29.7 µM	4.33 µM	43.8 µM	3.37 µM	14.2
COc1cccc(/C=C/c2ccnc3ccccc23)c1OC		> 10 µM		> 10 µM		> 10 µM		> 10 µM		> 10 µM		> 10 µM		> 10 µM		> 10 µM		> 10 µM		> 10
Nc1cc(C(F)(F)F)c(-c2cc(N3CCOCC3)nc(N3CCOCC3)n2)cn1	0.753 µM and 0.856 µM	3.45 µM and > 21.5 µM	0.235 µM and 0.654 µM	1.58 µM and 2.94 µM	0.189 µM and 0.205 µM	0.713 µM and 1.09 µM	0.925 µM and 1.42 µM	> 9.53 µM and 7.1 µM	0.547 µM and 0.531 µM	> 7.41 µM and 3.66 µM	1.17 µM and 1.29 µM	7.06 µM and 4.99 µM	1.17 µM and 1.28 µM	> 84.6 µM	0.385 µM and 0.793 µM	4.31 µM and 4.87 µM	0.692 µM and 0.848 µM	7.16 µM and 8.7 µM	0.807 µM and 0.907 µM	> 33.4
CN(C)Cc1ccc(C(C)(C)C)cc1-c1cc(C(C)(C)C)ccc1CN(C)C		> 100 µM		> 100 µM		> 100 µM		> 100 µM		> 100 µM		> 100 µM		> 100 µM		> 100 µM		> 100 µM		> 100
O=C(Nc1cccc(-n2cc(-c3ccncc3)c(-c3ccc(O)c(Cl)c3)n2)c1)c1cc(C(F)(F)F)cc(C(F)(F)F)c1	4.72 µM	> 50 µM	22.8 µM	> 50 µM	9.2 µM	> 50 µM	7.26 µM	> 50 µM	5.15 µM	31.4 µM	2.41 µM	> 50 µM	5.15 µM	> 50 µM	17.5 µM	> 50 µM	8.33 µM	37.7 µM	1.86 µM	> 50
COc1ccc(-c2[nH]nc(N)c2-c2cc(OC)c3c(c2)OCO3)cc1	2.33 µM	8.48 µM	5.74 µM	> 100 µM	1.88 µM	6.75 µM	4.74 µM	> 100 µM	3.65 µM	25.7 µM	4.73 µM	> 100 µM	3.87 µM	> 100 µM	5.65 µM	> 100 µM	16 µM	> 100 µM	4.86 µM	> 100
CCN(CC)c1ccc(C2NC(=O)c3ccccc3N2)cc1 (configuration not stated)		> 100 µM		> 100 µM		> 31.6 µM		> 100 µM		> 20.8 µM		> 100 µM		> 100 µM		> 100 µM		> 100 µM		> 100
O=C(/C=C/C(Cl)(Cl)Cl)Nc1ccc(Cl)cc1		14 µM		34.6 µM		28.8 µM		9.82 µM		4.03 µM		8.98 µM		11.3 µM		9.95 µM		27.5 µM		2.2
COc1ccc2nc3cc([N+](=O)[O-])ccc3c(NNc3ccccc3)c2c1	12.8 µM	55.1 µM and > 100 µM	14.9 µM	35.3 µM and > 100 µM		13.2 µM	7.35 µM	30.8 µM and > 100 µM		29.9 µM and 39.2 µM		37.8 µM and > 100 µM	12.1 µM	28.1 µM and > 90.5 µM	13.1 µM	29.7 µM and > 100 µM	14.9 µM	47.2 µM and > 100 µM	14.5 µM	> 100
CCN(CC)CCC(CNc1ccnc2cc(Cl)ccc12)c1ccccc1 (configuration not stated)	9.92 µM	48.4 µM	18.4 µM	52.8 µM	2.41 µM	13 µM	7.85 µM	41 µM	0.493 µM	10.4 µM	11.6 µM	26.3 µM	11.5 µM	38.8 µM	12.1 µM	48.9 µM	16.9 µM	73.3 µM	1.77 µM	5.17
